Structures can show the parent of a compound that is named as a salt.
Tested on: not given
Assay: not given
Details: not given

Row | melting point | Molecule
1 | > 250 °C | Cc1nccn1Cc1cn(-c2ccc([N+](=O)[O-])cc2)cn1.Cl.Cl
2 | > 250 °C | Cc1cnc(C)n1Cc1cn(-c2ccc(Cl)c(Cl)c2)cn1.Cl.Cl
3 | 204 to 205 °C | Cc1nccn1Cc1ccn(-c2ccc(Cl)c(Cl)c2)n1.Cl
4 | 237 to 239 °C | CCc1nccn1Cc1cn(-c2cccc(OC(F)(F)F)c2)cn1.Cl.Cl
5 | > 200 °C (dec.) | Cl.Cl.Clc1cccc(-n2cnc(Cn3ccnc3)c2)c1
6 | 233 to 234 °C | Cl.Cl.Fc1cc(-n2cnc(Cn3ccnc3)c2)cc(C(F)(F)F)c1
7 | 244 to 246 °C | COc1cc(-n2cnc(Cn3ccnc3)c2)cc(C(F)(F)F)c1.Cl.Cl
8 | 210 to 212 °C | CCc1nccn1Cc1cn(-c2ccc(F)c(C)c2)cn1.Cl.Cl
9 | > 238 °C (dec.) | CCc1nccn1Cc1cn(-c2ccc(F)c(C(F)(F)F)c2)cn1.Cl.Cl
10 | 221 to 222 °C | COc1cc(-n2cnc(Cn3ccnc3)c2)ccc1Cl.Cl.Cl
11 | 174 to 178 °C | COc1cc(-n2cnc(Cn3ccnc3)c2)ccc1F.Cl.Cl
12 | > 250 °C | Cl.Cl.Clc1ccc(-n2cnc(Cn3ccnc3)c2)cc1Cl
13 | > 250 °C | CCc1nccn1Cc1cn(-c2ccc(C)c(F)c2)cn1.Cl.Cl
14 | 235 to 236 °C | Cc1nccn1Cc1cn(-c2ccc(Cl)cc2F)cn1.Cl.Cl
15 | > 212 °C (dec.) | Cl.Cl.Fc1cc(Cl)ccc1-n1cnc(Cn2ccnc2)c1
16 | 224 to 225 °C | Cl.Cl.c1ccc(COc2ccc(-n3cnc(Cn4ccnc4)c3)cc2)cc1
17 | 249 to 251 °C | COc1cc(-n2cnc(Cn3ccnc3)c2)ccc1C.Cl.Cl
18 | 246 to 248 °C | Cc1nccn1Cc1cn(-c2ccc(C(F)(F)F)cc2)cn1.Cl.Cl
19 | > 250 °C | Cc1nccn1Cc1cn(-c2ccc3c(c2)COC3)cn1.Cl.Cl
20 | > 250 °C | COc1ccc(-n2cnc(Cn3ccnc3C)c2)cc1.Cl.Cl
21 | > 250 °C | Cc1nccn1Cc1cn(-c2ccc(Cl)c(C(F)(F)F)c2)cn1.Cl.Cl
22 | > 250 °C | Cl.Cl.FC(F)(F)c1cc(-n2cnc(Cn3ccnc3)c2)ccc1Cl
23 | 248 to 253 °C | CCc1nccn1Cc1cn(-c2ccc(-c3ccccc3)cc2)cn1.Cl.Cl

Row | melting point | Molecule
24 | 169 to 175 °C | Cc1nccn1Cc1cn(-c2ccc(-c3ccccc3)cc2)cn1.Cl.Cl
25 | 218 to 219 °C | Cc1ccc(-n2cnc(Cn3ccnc3)c2)cc1C (as salt: hydrochloride) [Example 21]
26 | 242 to 243 °C | CSc1ccc(-n2cnc(Cn3ccnc3C)c2)cc1 (as salt: hydrochloride) [Example 27]
27 | 230 to 233 °C | Cc1cc(-n2cnc(Cn3ccnc3N)c2)ccc1Cl (as salt: hydrochloride) [Example 105, 1-[1-(4-Chloro-3-methyl-phenyl)-1H-imidazol-4-yl-methyl]-1H-imidazol-2-yl-amine-, Hydrochloride (1:2)]
28 | 234 to 236 °C | CCc1nccn1Cc1cn(-c2cccc(SC(F)(F)F)c2)cn1 (as salt: hydrochloride) [Example 143]
29 | > 200 °C (dec.) | CCc1nccn1Cc1cn(-c2ccc(F)c(C(C)(F)F)c2)cn1 (as salt: hydrochloride) [Example 151, 1H-Imidazole, 1-[[1-1-[3-(1,1-Difluoroethyl)-4-fluorophenyl]-1H-imidazol-4-yl]methyl]-ethyl-, Hydrochloride (1:2)]
30 | > 200 °C (dec.) | CCc1nccn1Cc1cn(-c2cccc(C(C)C)c2)cn1 (as salt: hydrochloride) [Example 153]
31 | 247 to 248 °C | Cc1nccn1Cc1cn(-c2ccc3ccccc3c2)cn1 (as salt: hydrochloride) [Example 155, 1H-Imidazole, 2-Methyl-1-[[1-(naphtalen-2-yl)-1H-imidazol-4-yl]methyl]-, Hydrochloride (1:2)]
32 | > 200 °C (dec.) | Cc1nccn1Cc1cn(-c2cccc(Cl)c2)cn1 (as salt: hydrochloride) [Example 173]
33 | 245 to 246 °C | CCc1nccn1Cc1cn(-c2cc(OC)cc(C(F)(F)F)c2)cn1 (as salt: hydrochloride) [Example 181]
34 | 160 °C | Cc1nccn1Cc1cn(-c2ccc3ccccc3n2)cn1 (as salt: sodium) [Example 204, 2-[4-(2-Methyl-imidazol-1-ylmethyl)-imidazol-1-yl]-quinoline]
35 | > 80 °C (dec.) | CCc1nccn1Cc1cn(-c2ccc3ccccc3n2)cn1 (as salt: sodium) [Example 205, 2-[4-(2-Ethyl-imidazol-1-ylmethyl)-imidazol-1-yl]-quinoline]
36 | > 150 °C (dec.) | c1ccc2nc(-n3cnc(Cn4ccnc4)c3)ccc2c1 (as salt: sodium) [Example 206, 2-(4-Imidazol-1-ylmethyl-imidazol-1-yl)-quinoline]
37 | 132 to 136 °C | CCc1nccn1Cc1cn(-c2cnc3ccccc3c2)cn1 (as salt: sodium) [Example 210, 3-[4-(2-Ethyl-imidazol-1-ylmethyl)-imidazol-1-yl]-quinoline]
38 | 168 to 172 °C | Cc1nccn1Cc1cn(-c2cnc3ccccc3c2)cn1 (as salt: sodium) [Example 211, 3-[4-(2-Methyl-imidazol-1-ylmethyl)-imidazol-1-yl]-quinoline]
39 | 192 to 196 °C | Cc1nccn1Cc1cn(-c2ccc(Cl)cn2)cn1 (as salt: sodium) [Example 212, 5-Chloro-2-[4-(2-methyl-imidazol-1-ylmethyl)-imidazol-1-yl]-pyridine]
40 | 182 to 185 °C | CCc1nccn1Cc1cn(-c2ccc(Cl)cn2)cn1 (as salt: sodium) [Example 213, 5-Chloro-2-[4-(2-ethyl-imidazol-1-ylmethyl)-imidazol-1-yl]-pyridine]
41 | > 125 °C (dec.) | Cc1nccn1Cc1cn(-c2ccc3ncccc3c2)cn1 (as salt: sodium) [Example 220, 6-[4-(2-Methyl-imidazol-1-ylmethyl)-imidazol-1-yl]-quinoline]
42 | > 79 °C (dec.) | CCc1nccn1Cc1cn(-c2ccc3ncccc3c2)cn1 (as salt: sodium) [Example 221, 6-[4-(2-Ethyl-imidazol-1-ylmethyl)-imidazol-1-yl]-quinoline]
43 | 150 to 154 °C | Cc1nccn1Cc1cn(-c2cccc3cccnc23)cn1 (as salt: sodium) [Example 222, 8-[4-(2-Methyl-imidazol-1-ylmethyl)-imidazol-1-yl]-quinoline]
44 | 78 to 81 °C | CCc1nccn1Cc1cn(-c2cccc3cccnc23)cn1 (as salt: sodium) [Example 223, 8-[4-(2-Ethyl-imidazol-1-ylmethyl)-imidazol-1-yl]-quinoline]
45 | > 236 °C (dec.) | CC(=O)Nc1nccn1Cc1cn(-c2ccc(Cl)c(Cl)c2)cn1 [Example 110, N-{1-[1-(3,4-Dichloro-phenyl)-1H-imidazol-4-yl-methyl]-1H-imidazol-2-yl}-acetamide]
46 | 176 to 177 °C | Cc1nccn1Cc1cnn(-c2ccc(Cl)c(Cl)c2)c1 [Example 114, 1-(3,4-Dichloro-phenyl)-4-(2-methyl-imidazol-1-yl-methyl)-1H-pyrazole]

Molecular target: T1, NMDA-receptor subtype 2B (Rattus norvegicus, UniProt P35439+Q00960)
T1 construct: Membranes were prepared by homogenization of the whole brain minus cerebellum and medulla oblongata; from tissue; host or cells: rat whole brain minus cerebellum and medulla oblongata, membrane preparation
Assay: 3H-Ro 25-6981 binding (displacement) on rat brain membranes
Details: displacement of 5 nM 3H-Ro 25-6981, rat whole brain membranes (minus cerebellum and medulla oblongata), 2 hours at 4° C.
Description: ^3H[R-(R*,S*)]-(α-(4-Hydroxy-phenyl)-β-methyl-4-(phenyl-methyl)-1-piperidine propanol)binding
Male Füllinsdorf albino rats weighing between 150-200 g were used. Membranes were prepared by homogenization of the whole brain minus cerebellum and medulla oblongata with a Polytron (10.000 rpm, 30 seconds), in 25 volumes of a cold Tris-HCl 50 mM, EDTA 10 mM, pH 7.1 buffer. The homogenate was centrifuged at 48,000 g for 10 minutes at 4° C. The pellet was resuspended using the Polytron in the same volume of buffer and the homogenate was incubated at 37° C. for 10 minutes. After centrifugation the pellet was homogenized in the same buffer and frozen at −80° C. for at least 16 hours but not more than 10 days. For the binding assay the homogenate was thawed at 37° C., centrifuged and the pellet was washed three times as above in a Tris-HCl 5 mM, pH 7.4 cold buffer. The final pellet was resuspended in the same buffer and used at a final concentration of […]. ^3H-Ro 25-6981 binding experiments were performed using a Tris-HCl 50 mM, pH 7.4 buffer. For displacement experiments 5 nM of ^3H-Ro 25-6981 were used and non specific binding was measured using 10 mM of tetrahydroisoquinoline and usually it accounts for 10% of the total. The incubation time was 2 hours at 4° C. and the assay was stopped by filtration on Whatmann GF/B glass fiber filters (Unifilter-96, Packard, Zürich, Switzerland). The filters were washed 5 times with cold buffer. The radioactivity on the filter was counted on a Packard Top-count microplate scintillation counter after addition of […] of microscint 40 (Canberra Packard S.A., Zuirich, Switzerland).
The effects of compounds were measured using a minimum of 8 concentrations and repeated at least once.

T1 sequence (Q00960 27-1482, other chains not shown): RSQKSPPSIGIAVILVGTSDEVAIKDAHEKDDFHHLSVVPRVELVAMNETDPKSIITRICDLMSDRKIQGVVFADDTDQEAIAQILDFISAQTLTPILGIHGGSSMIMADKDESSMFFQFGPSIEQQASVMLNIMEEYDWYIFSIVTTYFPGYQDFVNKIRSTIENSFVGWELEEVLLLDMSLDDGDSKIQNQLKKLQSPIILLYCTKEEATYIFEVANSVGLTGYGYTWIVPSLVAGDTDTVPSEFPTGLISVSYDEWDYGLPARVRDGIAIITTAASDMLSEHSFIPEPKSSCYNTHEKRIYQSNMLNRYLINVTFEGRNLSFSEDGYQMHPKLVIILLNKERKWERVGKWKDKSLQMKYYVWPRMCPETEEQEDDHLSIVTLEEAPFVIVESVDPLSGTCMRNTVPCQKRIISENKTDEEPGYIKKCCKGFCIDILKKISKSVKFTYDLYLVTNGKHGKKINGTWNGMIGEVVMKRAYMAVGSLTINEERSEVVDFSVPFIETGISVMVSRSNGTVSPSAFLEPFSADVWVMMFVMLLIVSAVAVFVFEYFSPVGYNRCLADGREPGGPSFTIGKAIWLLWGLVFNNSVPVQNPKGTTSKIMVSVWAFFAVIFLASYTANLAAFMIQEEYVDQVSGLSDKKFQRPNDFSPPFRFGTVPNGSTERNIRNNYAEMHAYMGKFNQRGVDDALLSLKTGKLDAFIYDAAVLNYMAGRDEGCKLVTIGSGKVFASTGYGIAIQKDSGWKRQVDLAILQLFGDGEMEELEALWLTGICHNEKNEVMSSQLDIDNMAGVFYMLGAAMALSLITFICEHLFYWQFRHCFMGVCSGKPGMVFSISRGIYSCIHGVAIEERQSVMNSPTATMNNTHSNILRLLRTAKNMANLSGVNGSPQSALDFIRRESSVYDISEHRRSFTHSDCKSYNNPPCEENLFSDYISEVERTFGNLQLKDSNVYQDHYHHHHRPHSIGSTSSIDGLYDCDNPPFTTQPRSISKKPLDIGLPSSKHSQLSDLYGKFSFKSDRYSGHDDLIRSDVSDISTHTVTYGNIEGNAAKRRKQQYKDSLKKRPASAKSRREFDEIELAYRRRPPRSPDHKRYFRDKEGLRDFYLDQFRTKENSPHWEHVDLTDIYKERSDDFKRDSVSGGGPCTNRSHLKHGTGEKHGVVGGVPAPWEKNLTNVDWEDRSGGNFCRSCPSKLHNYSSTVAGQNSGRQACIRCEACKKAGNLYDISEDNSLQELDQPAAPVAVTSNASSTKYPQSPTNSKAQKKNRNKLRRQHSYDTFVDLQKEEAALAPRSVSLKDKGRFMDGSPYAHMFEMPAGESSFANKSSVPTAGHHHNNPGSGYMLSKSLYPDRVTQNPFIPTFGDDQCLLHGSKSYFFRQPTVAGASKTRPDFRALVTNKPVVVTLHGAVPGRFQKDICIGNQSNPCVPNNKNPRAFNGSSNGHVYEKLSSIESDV

Row | IC50 | Molecule
47 | 43 nM | Cc1ccc(-n2cnc(Cn3ccnc3)c2)cc1C [Example 21]
48 | 27 nM | CSc1ccc(-n2cnc(Cn3ccnc3C)c2)cc1 [Example 27]
49 | 1 nM | Cc1cc(-n2cnc(Cn3ccnc3N)c2)ccc1Cl [Example 105, 1-[1-(4-Chloro-3-methyl-phenyl)-1H-imidazol-4-yl-methyl]-1H-imidazol-2-yl-amine-, Hydrochloride (1:2)]
50 | 46 nM | Cc1cc(-c2c[nH]c(Cn3ccnc3C)n2)ccc1F [Example 119, 1H-Imidazole, 1-[[4-(4-Fluoro-3-methylphenyl)-1H-imidazol-2-yl]methyl]-2-methyl-, Hydrochloride (1:2)]
51 | 65 nM | Cc1ccc(-c2cncc(Cn3ccnc3C)c2)cc1C [Example 130, 3-(3,4-Dimethyl-phenyl)-5-(2-methyl-imidazol-1-yl-methyl)-pyridine Hydrochloride (1:1)]

Row | Molecule | IC50
52 | 1H-Imidazole, 1-(3,4-Dichlorophenyl)-4-[(4-methyl-1H-imidazol-1-yl)methyl]-, Hydrochloride (1:2) and 1H-Imidazole, 1-(3,4-Dichlorophenyl)-4-[(5-methyl-1H-imidazol-1-yl)methyl]-, Hydrochloride (1:2) (ratio 3:2) [Example 6] | 45 nM
53 | 4-Imidazol-1-ylmethyl-1-(3-methylsulfanyl-phenyl)-1H-imidazole Hydrochloride (1:2) [Example 145] | 54 nM

From US6667335B2, “Imidazole derivatives” (Hoffmann-La Roche Inc., priority 2001, dated 2003)
